Results reported in PubChem BioAssay AID652107 (NMMLSC, 2013).

Tested on: human granulocytes, fMLF-stimulated F-actin, FITC-phalloidin flow
Assay: actin polymerization inhibitors in human granulocytes – cell-based, primary human granulocytes, FITC-phalloidin flow cytometry, mechanism study for Cdc42 probe extension project (AID 652107)
Conditions: at 10 µM; stronger effect = higher value

Work on `COc1ccc(C2CC(c3ccccc3)=NN2c2ccc(S(N)(=O)=O)cc2)cc1` (stereo unspecified) yielded an inhibition of 10%.
